Results reported in patent US4696928A, “Substituted dihydroimidazo[1,2-a]quinoxalines” (G. D. Searle & Co., priority 1985, dated 1987).
In brackets after ≈: the same amount, converted by molar mass. Several values for one entry are separate records, joined by “and”; a condition that tells them apart may be missing. Identical values can stand only once. Like-named read-outs stand apart in the source and are kept apart here.

Assays:
B. fragilis NCTC 10581 = assay: MIC/MBC broth microdilution, strain A; type: cell-based; details: Bacteroides fragilis, NCTC10581, 48 h; for MIC: 37° C., anaerobic; for MBC: 99.9% reduction in viable count after 48 h
B. fragilis NCTC 9343 = assay: MIC/MBC broth microdilution, strain B; type: cell-based; details: Bacteroides fragilis, NCTC9343, 48 h; for MIC: 37° C., anaerobic; for MBC: 99.9% reduction in viable count after 48 h
B. fragilis NCTC 9344 = assay: MIC/MBC broth microdilution, strain C; type: cell-based, Bacteroides fragilis; details: for MBC: 99.9% reduction in viable count after 48 h; for MIC: 37° C., anaerobic
[1] = tested on: B. fragilis MZ-R ATCC 11295; assay: MIC/MBC broth microdilution, strain D; type: cell-based; details: Bacteroides fragilis, ATCC11295, 48 h; for MBC: 99.9% reduction in viable count after 48 h
B. fragilis WS-1 = assay: MIC/MBC broth microdilution, strain E; type: cell-based, Bacteroides fragilis; details: for MIC: 37° C., anaerobic; for MBC: 99.9% reduction in viable count after 48 h
[2] = tested on: Clostridium perfringens NCTC 523; assay: microbe, parasite or virus in culture; type: cell-based; details: NCTC523
[3] = tested on: Clostridium perfringens NCTC 8237; assay: microbe, parasite or virus in culture; type: cell-based; details: NCTC8237
[4] = tested on: Clostridium difficile NCIB 10666; assay: MIC vs. panel of anaerobes; type: cell-based; details: Clostridioides difficile, NCIB10666; Clostridium difficile NCIB 10666; read-out: MIC
[5] = tested on: Clostridium difficile Cytotoxic 1; assay: MIC vs. panel of anaerobes; type: cell-based; details: Clostridioides difficile
[6] = tested on: Campylobacter fetus ss.jejuni ATCC 29428; assay: MIC vs. panel of anaerobes; type: cell-based; details: ATCC29428
[7] = tested on: Fusobacterium necrophorum ATCC 11295; assay: MIC vs. panel of anaerobes; type: cell-based; details: ATCC11295
[8] = tested on: Bacteroides melanogenicus NCTC 9336; assay: MIC vs. panel of anaerobes; type: cell-based; details: NCTC9336; Bacteroides melanogenicus NCTC 9336; read-out: MIC
[9] = tested on: Peptostreptococcus anaerobicus; assay: MIC vs. panel of anaerobes; type: cell-based; details: Peptostreptococcus anaerobicus; read-out: MIC
[10] = tested on: Propionebecterium acnes NCTC 737; assay: MIC vs. panel of anaerobes; type: cell-based
[11] = tested on: Propionebacterium acnes NCTC 7337; assay: MIC vs. panel of anaerobes; type: cell-based
B. Fragilis ATCC 23745 = details: for ED (1 log reduction): Bacteroides fragilis, ATCC23745, in Mus musculus, po
[12] = Bacteroides fragilis, NCTC9344, 48 h, read-out: MBC
[13] = Bacteroides fragilis, NCTC9344, 48 h, 48 h
[14] = strain D (MZ-R), 48 h, 37° C., anaerobic, read-out: MIC
[15] = Bacteroides fragilis, WS1, 48 h, read-out: MIC
[16] = Bacteroides fragilis, WS1, 48 h
[17] = 48 h, read-out: Dose giving 1 log reduction, p.o., after infection and twice daily for 2 days, 1 log (90%) reduction of CFU/ml liver homogenate vs untreated, compound of Example
[18] = Bacteroides fragilis, NCTC9344, 48 h, read-out: MIC
[19] = Fusobacterium necrophorum ATCC 11295, read-out: MIC
[20] = Bacteroides fragilis, WS1, 48 h, 48 h

Row | SMILES | MIC (B. fragilis NCTC 10581; read-out: MIC) | MBC (B. fragilis NCTC 10581) | MIC (B. fragilis NCTC 9343; read-out: MIC) | MBC (B. fragilis NCTC 9343) | MBC (B. fragilis NCTC 9344; [12]) | MIC (B. fragilis NCTC 9344; [13]) | MBC ([1]; strain D (MZ-R)) | MIC [2] | MIC [3] | MIC [4] | MIC [5] | MIC [6] | MIC [8] | MIC [9] | MIC [10] | MIC [11] | ED (1 log reduction) (B. Fragilis ATCC 23745; [17]) | MIC (B. fragilis NCTC 9343; 48 h) | MIC [7, 19] | MIC [1] | also measured
1 | [O-][N+]1=C(c2ccccc2)C2=NCCN2c2cc(N3CCN(Cc4ccccc4)CC3)ccc21 [Example 6, 1,2-Dihydro-4-phenyl-8-(4-phenylmethylpiperazinyl)imidazo[1,2-a]quinoxaline5-oxide] | 25 µg/mL (≈ 57.1 µM) | 25 µg/mL (≈ 57.1 µM) | 50 µg/mL (≈ 114 µM) | 50 µg/mL (≈ 114 µM) | 25 µg/mL (≈ 57.1 µM) | 12.5 µg/mL (≈ 28.6 µM) | 25 µg/mL (≈ 57.1 µM) | 12.5 µg/mL (≈ 28.6 µM) | 12.5 µg/mL (≈ 28.6 µM) | < 0.8 µg/mL | 3.1 µg/mL (≈ 7.08 µM) | 100 µg/mL (≈ 229 µM) | 50 µg/mL (≈ 114 µM) | 100 µg/mL (≈ 229 µM) | 50 µg/mL (≈ 114 µM) | 50 µg/mL (≈ 114 µM) | 6.27 mg/kg | – | – | – | MIC [1, 14]: 25 µg/mL (≈ 57.1 µM); MIC (B. fragilis WS-1; [15]): 25 µg/mL (≈ 57.1 µM); MBC (B. fragilis WS-1; [16]): 25 µg/mL (≈ 57.1 µM); MIC ([7]; Fusobacterium necrophorum): 12.5 µg/mL (≈ 28.6 µM)
2 | CC(=O)N1CCN(c2ccc3c(c2)N2CCN=C2C(c2ccccc2)=[N+]3[O-])CC1 [Example 7, 8-(4-Acetylpiperazinyl)-1,2-dihydro-4-phenylimidazo[1,2-a]quinoxaline 5-oxide] | 6.2 µg/mL (≈ 15.9 µM) | 6.2 µg/mL (≈ 15.9 µM) | – | 3.1 µg/mL (≈ 7.96 µM) | 6.2 µg/mL (≈ 15.9 µM) | – | 1.5 µg/mL (≈ 3.85 µM) | 1.5 µg/mL (≈ 3.85 µM) | 3.1 µg/mL (≈ 7.96 µM) | < 0.8 µg/mL | < 0.8 µg/mL | 12.5 µg/mL (≈ 32.1 µM) | 6.2 µg/mL (≈ 15.9 µM) | 12.5 µg/mL (≈ 32.1 µM) | 25 µg/mL (≈ 64.2 µM) | 12.5 µg/mL (≈ 32.1 µM) | 11.3 mg/kg | 3.1 µg/mL (≈ 7.96 µM) | 3.1 µg/mL (≈ 7.96 µM) | – | MIC (B. fragilis NCTC 9344; [18]): 6.2 µg/mL (≈ 15.9 µM); MIC [1, 14]: 1.5 µg/mL (≈ 3.85 µM); MIC (B. fragilis WS-1; [15]): 6.2 µg/mL (≈ 15.9 µM); MBC (B. fragilis WS-1; [16]): 6.2 µg/mL (≈ 15.9 µM)
3 | [O-][N+]1=C(c2ccccc2)C2=NCCN2c2cc(N3CCN(c4ccccc4)CC3)ccc21 [Example 8, 1,2-Dihydro-4-phenyl-8-(4-phenylpiperazinyl)imidazo[1,2-a]quinoxaline 5-oxide] | 1.5 µg/mL (≈ 3.54 µM) | – | 1.5 µg/mL (≈ 3.54 µM) | – | – | < 0.8 µg/mL | – | 1.5 µg/mL (≈ 3.54 µM) | 3.1 µg/mL (≈ 7.32 µM) | < 0.8 µg/mL | < 0.8 µg/mL | > 100 µg/mL | > 100 µg/mL | > 100 µg/mL | > 100 µg/mL | > 100 µg/mL | – | – | 3.1 µg/mL (≈ 7.32 µM) | < 0.8 µg/mL | MIC (B. fragilis WS-1; [20]): 3.1 µg/mL (≈ 7.32 µM)
4 | CN1CCN(c2ccc3c(n2)N2CCN=C2C(c2ccccc2)=[N+]3[O-])CC1 [Example 9, 1,2-Dihydro-8-(4-methylpiperazinyl)-4-phenylimidazo[1,2-a]pyrido[3,2-e]pyrazine 5-oxide] | – | 0.8 µg/mL (≈ 2.21 µM) | – | 0.8 µg/mL (≈ 2.21 µM) | 0.8 µg/mL (≈ 2.21 µM) | 0.8 µg/mL (≈ 2.21 µM) | 0.8 µg/mL (≈ 2.21 µM) | – | – | – | – | – | – | – | – | – | 4.48 mg/kg | 0.8 µg/mL (≈ 2.21 µM) | – | 0.8 µg/mL (≈ 2.21 µM) | MIC (B. fragilis NCTC 10581; 48 h): 0.8 µg/mL (≈ 2.21 µM)
5 | [O-][N+]1=C(c2ccccc2)C2=NCCN2c2nc(N3CCN(Cc4ccccc4)CC3)ccc21 [Example 17, 1,2-Dihydro-4-phenyl-8-(4-phenylmethylpiperazinyl)imidazo[1,2-a]pyrido[3,2-e]pyrazine 5-oxide] | – | – | – | – | – | – | – | – | – | – | – | – | – | – | – | – | 3.59 mg/kg | – | – | – | –
6 | Cc1ncc([N+](=O)[O-])n1CCO [Metronidazole, reference compound] | 0.6 µg/mL (≈ 3.51 µM) | 0.8 µg/mL (≈ 4.67 µM) | 0.6 µg/mL (≈ 3.51 µM) | – | 0.6 µg/mL (≈ 3.51 µM) | < 0.8 µg/mL | – | < 0.8 µg/mL | 1.5 µg/mL (≈ 8.76 µM) | – | < 0.8 µg/mL | > 100 µg/mL | > 100 µg/mL | > 100 µg/mL | > 100 µg/mL | > 100 µg/mL | – | 0.8 µg/mL (≈ 4.67 µM) | 6.2 µg/mL (≈ 36.2 µM) | 3.1 µg/mL (≈ 18.1 µM) | MIC (B. fragilis NCTC 10581; 48 h): < 0.8 µg/mL; MBC (B. fragilis NCTC 9344): 0.8 µg/mL and < 0.8 µg/mL; MIC (B. fragilis NCTC 9344; 48 h): 0.8 µg/mL (≈ 4.67 µM); MIC (B. fragilis NCTC 9344; [18]): 0.6 µg/mL (≈ 3.51 µM); MIC (B. fragilis WS-1; 48 h): < 0.8 µg/mL and 0.8 µg/mL; MIC (B. fragilis WS-1; [20]): 1.5 µg/mL (≈ 8.76 µM); reduction in B. fragilis (B. Fragilis ATCC 23745; 40 mg/kg (p.o.)): 3-3.5 log10; ED (1 log reduction) (B. Fragilis ATCC 23745; read-out: Dose giving 1 log reduction, Metronidazole, p.o., positive control beside the compound of the same line): 1.64 mg/kg
